Results reported in patent US4336253A, “Cephalosporin antibiotics” (Eli Lilly and Company, priority 1981, dated 1982).

Assay: physchem
[1] = 66% dmf, first titratable group
[2] = 66% dmf, second titratable group

pKa [1] | pKa [2] | pKa (water, first titratable group) | pKa (water, second titratable group) | Structure (SMILES)
3.68 | 11.5 | 4.6 | 9.09 | O=C(Cc1cccnc1)NO [N-hydroxy 3-pyridineacetamide]
~3.4 | 11.7 | 4.05 | 9.2 | O=C(Cc1ccccn1)NO [N-hydroxy-2-pyridineacetamide]
 |  | 3.55 | 7.9 | CN(O)C(=O)c1ccncc1 [N-hydroxy-N-methyl 4-pyridinecarboxamide]
